Assay results taken from ChEMBL document CHEMBL5620365, “Synthesis and evaluation of piperazinotriazoles. Discovery of a potent and orally bioavailable neurokinin-3 receptor inhibitor” (Eur J Med Chem, 2023).

Experiments:
[1] = in vivo; conditions: Sprague-Dawley, rat, po, 5 mg/kg
[2] = in vivo; conditions: Sprague-Dawley, rat, iv, 1 mg/kg
[3] = in vivo; conditions: Sprague-Dawley, rat, po, 5 mg/kg; remark: listed apart in the source
[4] = in vivo; conditions: Sprague-Dawley, rat, iv, 1 mg/kg; remark: listed apart in the source
[5] = in vivo; conditions: Sprague-Dawley, rat, po, 5 mg/kg; remark: listed apart in the source
[6] = in vivo; conditions: Sprague-Dawley, rat, iv, 1 mg/kg; remark: listed apart in the source
[7] = in vivo; conditions: Sprague-Dawley, rat, iv, 1 mg/kg; remark: listed apart in the source
[8] = in vivo; conditions: Sprague-Dawley, rat, iv, 1 mg/kg; remark: listed apart in the source
[9] = in vivo; conditions: Sprague-Dawley, rat, po, 5 mg/kg; remark: listed apart in the source
[10] = in vivo; conditions: Sprague-Dawley, rat, liver, po, 5 mg/kg
[11] = in vivo; conditions: Sprague-Dawley, rat, brain, po, 5 mg/kg
[12] = in vivo; conditions: Sprague-Dawley, rat, brain, po, 5 mg/kg; remark: listed apart in the source
[13] = in vitro; conditions: rat, liver microsomes
[14] = in vitro; conditions: human, liver microsomes

## Cc1nsc(-c2nnc3n2CCN(C(=O)c2ccc(F)cc2)[C@@H]3C)n1 [FEZOLINETANT]
[1]
  Tmax at 24 h: 1.83 h
[2]
  Cmax at 24 h: 1770 ng/mL
[3]
  Cmax at 24 h: 3630 ng/mL
[4]
  AUC(0-t) at 24 h: 5590 ng·h/mL
[5]
  AUC(0-t) at 24 h: 31600 ng·h/mL
[6]
  clearance at 24 h: 2.93 mL/min/kg
[7]
  Vd at 24 h: 0.751 L/kg
[8]
  half-life at 24 h: 2.94 h
[9]
  half-life at 24 h: 3.72 h
[10]
  concentration at 1 h: 12100 ng/g
[11]
  concentration at 10 h: 297 ng/g
[12]
  concentration at 1 h: 1020 ng/g
[13]
  CLint scaled at 0.25 h: < 6.8 mL/min/kg
[14]
  CLint scaled at 0.25 h: < 13.5 mL/min/kg
